# Assay results taken from US20130129681A1, “METHODS FOR DIAGNOSING SOLID TUMORS” (NODALITY, INC., priority 2011, published 2013).
# Entries after “also recorded” stand apart in the source; their conditions may differ.
# How the values were obtained:
# [1] = tested on: p-AKT and p-ERK (PI3K and MAP Kinase pathways) in epithelial cells of bladder washes; assay: SCNP of bladder wash samples: p-AKT and p-ERK at baseline and after EGF +/- GDC-0941; type: cell-based, human
# Protocol: Bladder washes from non-cancer (NC) patients (pts) (n=8) and confirmed/suspected bladder cancer (BC) pts (n=20) were collected using standard medical practice and shipped overnight on ice for processing within 24 hours. Antibodies against CD45, Cytokeratin (CK), and EpCAM were used to differentiate epithelial cells from leukocytes, while measurements of DNA aneuploidy (DAPI stain) allowed for distinction between tumor and normal epithelial cells. Signaling activity in the PI3K and MAP Kinase pathways was assessed by measuring intracellular levels of p-AKT and p-ERK both at baseline and in response to pathway modulation. A process similar to that shown in Example 1 was used.
# (§1) Upon delivery, cells were pelleted, counted, rested for 1 hr at 37° C., followed by a 5 minute stimulation with EGF or vehicle+/−GDC-0941 200 nM added 1 hr prior to EGF addition to inhibit PI3K signaling After cell fixation and permeabilization, samples were stained with fluorophore-conjugated antibodies/DAPI cocktail, and the data acquired using multi-parametric flow cytometry. The epithelial bladder carcinoma cell line HT-1376 was used as a control for the epithelial phenotype and EGF signaling. A DNA index was determined using the lymphoid population in the pt samples as a diploid G0/G1 reference.
# [2] = tested on: p-AKT and p-ERK in epithelial cells of pleural effusion; assay: SCNP of pleural effusion, patient MCSF-04 (non-small cell lung cancer): p-AKT and p-ERK; type: cell-based, human
# Protocol: A procedure similar to that shown for Example 1 was performed. A pleural effusion was obtained from a patient (MCSF-04) with a diagnosis of non-small cell lung cancer with a white cell count of 21 million.
# (§2) Purpose: (1) Evaluate ability to detect epithelial cells in the pleural effusion sample. (2) Measure DNA content to evaluate whether detected cells are possibly originating from the tumor (aneuploid). (3) measure basal level p-AKT and p-ERK signaling in epithelial cells. (4) Measure evoked signaling after EGF stimulation in the same cell populations. (5) Measure signaling inhibition when the EGF is added after incubation with a PI3K inhibitor (GDC-0941). (6) Culture cells in the presence and absence of EGF to observe possible growth promoting effects and to potentially characterize the signaling of cells that expand.
# Gating Scheme: The epithelial phenotype is based on the cells being positive for EpCAM and Cytokeratin stains, while expressing low levels of CD45.
# SCNP contour plots show signaling in the epithelial cell compartment only. […] EGF stimulation (5 min., 37° C.) activates the PI3K and Ras/MEK pathways which are measured by p-AKT and p-ERK respectively. Attenuation of the EGF→p-AKT induced signaling in the presence of GDC-0941.
# [3] = tested on: p-AKT and p-ERK in epithelial cells of ascites fluid; assay: SCNP of ascites fluid, patient MCSF-02 (biliary cancer): p-AKT and p-ERK; type: cell-based, human
# Protocol: A procedure similar to that shown for Example 5 was performed. Ascites fluid was obtained from a patient (MCSF-02) with a diagnosis of biliary cancer with a white cell count of 4.3 million. This example has the same purpose as Example 5 as applied to ascites fluid.
# Gating Scheme: The epithelial phenotype is based on the cells being positive for EpCAM and cytokeratin, while expressing low levels of CD45. Positive staining for cleaved PARP (c-PARP) indicates apoptosis. DNA index: The DNA index of the epithelial cells is based on the DNA content of the cells in the epithelial gate divided by the DNA content of the lymphocytes.
# The biliary specimen contained 0.17% epithelial cells that were mostly non-apoptotic. This small percentage equates to ˜10 cells/condition. From this small population EGF induced p-AKT signaling was observed. A 9-fold increase in p-AKT levels were observed after […]. EGF stimulation. Induced signaling was attenuated with a 1 hour pre-incubation with 200 nM GDC-0941 (“GDC”). […] This is in contrast to the control cell line.
# [4] = tested on: p-AKT and p-ERK in epithelial cells of pleural effusion; assay: SCNP of pleural effusion, patient MCSF-06 (non-small cell lung cancer): p-Akt and p-ERK; type: cell-based, human
# Protocol: A procedure similar to that shown for Example 5 was performed. A pleural effusion was obtained from a patient (MCSF-06) with a diagnosis of non-small cell lung cancer with a white cell count of 6.8 million. This example has the same Purpose as Example 5 as applied to lung cancer. The HT-1376 epithelial bladder cancer cell line served as a positive control for EGF induced signaling.
# SCNP contour plots identify p-Akt and p-ERK signaling in the epithelial cell compartment only. […] EGF stimulation (5 min., 37° C.) activates the PI3K and Ras/MEK pathways which are measured by p-Akt and p-ERK respectively. […] Median fluorescent values of p-Akt and p-ERK under each treatment condition (see FIG. 5). The control cell line was processed in parallel with the patient sample.
# [5] = tested on: p-AKT and p-ERK in epithelial cells of pleural effusion; assay: SCNP of pleural effusion, patient MCSF-015 (non-small cell lung cancer): p-AKT and p-ERK; type: cell-based, human
# Protocol: A procedure similar to that shown for Example 5 was performed. A pleural effusion was obtained from a patient (MCSF-015) with a diagnosis of non-small cell lung cancer with a white cell count of 150 million.
# The HT-1376 epithelial bladder cancer cell line served as a positive control for EGF induced signaling. The control cell line was processed in parallel with the patient sample.
# SCNP contour plots identify p-AKT and p-ERK signaling in the epithelial cell compartment only. […] EGF stimulation (5 min., 37° C.) activates the PI3K and Ras/MEK pathways which are measured by p-Akt and p-ERK respectively. […] Median fluorescent values of p-AKT and p-ERK under each treatment condition.
# [6] = tested on: EGF signaling in epithelial cells of ascites or pleural effusion samples; assay: Summary of SCNP analysis of ascites or pleural effusion samples; type: cell-based, human
# Text: This analysis identified epithelial cells with inducible EGF signaling in ⅘ ascites or pleural effusion samples. In each of the 4 positive cases, induced signaling was inhibited by the PI3K inhibitor, GDC-0941.
# HT-1376 cells = assay: HT-1376 bladder cancer cells spiked into whole blood, EGF-induced pAKT and pERK; type: cell-based; details: HT-1376 in whole blood; 200 ng/mL EGF for 5 minutes at 37° C.
# Protocol: A procedure similar to that shown for Example 1 was performed.
# Two aliquots of 1 million cells from a bladder cancer cell line, HT-1376, were spiked into 4 mls of whole blood in an effort to determine a lower limit of detection for bladder cancer cells in blood. The epithelial cell line, HT-1376 (ATCC #CRL-1472), which has high (positive) levels of cytokeratin, low (positive) levels for EpCAM, and negative for CD45. One aliquot was preincubated with PI3K inhibitor GDC-0941 at 10 uM and another was modulated with 200 ng/mL EGF for 5 minutes at 37° C. Another aliquot of whole blood contained no HT-1376 cells or other reagents. BD phosflow fix/lyse reagent was used followed by methanol. EGF was used as a modulator to induce pAKT and pERK responses, 9.4 and 3.7 fold responses respectively.
# pleural effusion cells = assay: Culture of pleural effusion cells (MCSF-04) in presence and absence of EGF; type: cell-based, human
# Protocol: as §2
# Cells in culture: 1 million cells were plated in two wells of a 24-well plate in the presence and absence of EGF. The cells visually appeared healthy after 48 hrs in culture with some cells with elongated appearance like an epithelial cells. Some very large round cells were also observed. At day 8, both cultures had adherent and non-adherent cells. Counts were performed. The well without EGF contained 400,000 viable, non-adherent cells while the well in the presence +EGF contained 800,000. The patient specimen contained 15.87% epithelial cells that were mostly non-apoptotic. The DNA index is 1.37 indicating the epithelial cells are aneuploid.
# HT-1376 cell line = assay: Control cell line HT-1376 processed with the ascites sample, EGF-induced p-Erk; type: cell-based; details: HT-1376 control cell line
# Protocol: as §1
# The cell line control has what appears to be a lower basal p-ERK level, however one must be careful when comparing absolute fluorescent levels between different cell types (ie, cell line vs primary cells) due to differences in autofluoresence and degree of non-specific antibody binding. […] The DNA index is near 1.0 indicating these cells are not aneuploid.
# MDS patients = details: cited from earlier work
compound,measurement,setting,value
CS(=O)(=O)N1CCN(Cc2cc3nc(-c4cccc5[nH]ncc45)nc(N4CCOCC4)c3s2)CC1 [GDC-0941],prevention of EGF-induced p-AKT and p-ERK signaling,"[1]; BC samples, GDC-0941 200 nM added 1 hr prior to EGF",preventable
same,effect on EGF-induced p-AKT signaling,"[2]; MCSF-04 epithelial cells, EGF added after incubation with GDC-0941",attenuated; also recorded: Attenuation
same,effect on basal p-AKT signaling,"[2]; MCSF-04 epithelial cells, GDC-0941 incubation",attenuated
same,effect on basal (unstim) p-AKT level,"[3]; MCSF-02, 200 nM GDC-0941",inability of the PI3K inhibitor to decrease p-AKT beyond the basal
same,effect on EGF-induced p-AKT signaling,"[3]; MCSF-02, 1 hour pre-incubation with 200 nM GDC-0941",attenuated
same,"basal p-ERK, unstimulated condition versus GDC containing sample",[3]; MCSF-02 epithelial cells,higher than the GDC containing sample
same,effect on EGF-induced p-Akt signaling,[4]; MCSF-06 epithelial cells,Attenuation; also recorded: attenuated
same,effect on basal p-Akt signaling,[4]; MCSF-06 epithelial cells,attenuated
same,effect on p-ERK signaling,[4]; MCSF-06 epithelial cells,but not the p-ERK signaling
same,effect on EGF-induced p-Akt signaling,[5]; MCSF-015 epithelial cells,Attenuation; also recorded: attenuated
same,effect on basal p-Akt signaling,[5]; MCSF-015 epithelial cells,attenuated
same,effect on p-ERK signaling,[5]; MCSF-015 epithelial cells,but not the p-ERK signaling
same,effect on EGF-induced signaling in the positive samples,[6]; each of the 4 positive ascites or pleural effusion cases,inhibited
"EGF: Epidermal growth factor, growth factor used as modulator to induce p-AKT and p-ERK","EGF-induced p-AKT and p-ERK signaling, increase over baseline","[1]; 3/10 BC evaluable bladder wash samples, 5 minute stimulation with EGF",2-3 fold
same,EGF-induced signaling in NC specimens,"[1]; non-cancer (NC) bladder wash specimens, 5 minute stimulation with EGF",no EGF-induced signaling was observed
same,EGF-induced pAKT response,HT-1376 cells,9.4 fold
same,EGF-induced pERK response,HT-1376 cells,3.7 fold
same,EGF induction of p-AKT and p-ERK in epithelial cells,"[2]; MCSF-04 pleural effusion, EGF 5 min., 37° C.",strong
same,"viable, non-adherent cells per well at day 8","pleural effusion cells; 1 million cells plated, 24-well plate, presence of EGF (well without EGF 400,000)","800,000 cells"
same,proliferation in culture,"pleural effusion cells; MCSF-04 cells, EGF induced condition",Proliferation was observed
same,EGF induction of p-AKT in epithelial cells,[3]; MCSF-02 ascites,strong
same,EGF induction of p-Erk in epithelial cells,[3]; MCSF-02 ascites,no significant increase above baseline; also recorded: no p-Erk induction above baseline was detected
same,increase in p-AKT levels after EGF stimulation,"[3]; MCSF-02 ascites epithelial cells, 10 mins. EGF stimulation",9 fold
same,EGF induction of p-Erk in control cell line,HT-1376 cell line,observed
same,"EGF induction, above basal signaling, of p-Akt and p-ERK in epithelial cells","[4]; MCSF-06, EGF 5 min., 37° C.",strong
same,"EGF induction, above basal signaling, of p-Akt and p-ERK in epithelial cells","[5]; MCSF-015, EGF 5 min., 37° C.",strong
same,samples in which epithelial cells with inducible EGF signaling were identified,[6]; ascites or pleural effusion samples,⅘
CCOC(=O)[C@@H](N)CCC(=O)N[C@@H](CSCc1ccccc1)C(=O)N[C@@H](C(=O)OCC)c1ccccc1 [TLK-199],hematologic response in trial,MDS patients,hematologic improvement in all three hematopoietic lineages
same,toxicities in trial,MDS patients,"limited to infusion reactions, nausea, chills and bone pain"
